# Data as given in ChEMBL document CHEMBL1147321, “Terpenoids from the North Adriatic Sponge Spongia officinalis” (J Nat Prod, 1989).
# Assay: Toxicity against Artemia salina by lethality assay
# Format: organism-based
# Settings: in vivo, read-out: LD50 (the source's name)
row,Compound,LC50
1,C/C(=C\C(=O)/C=C(\C)CCCc1ccoc1)CCCc1ccoc1,1.6 µg/mL
2,C/C(=C/C(=O)/C=C(\C)CCCc1ccoc1)CCCc1ccoc1,0.09 µg/mL
3,C/C(=C/C(=O)/C=C(/C)CCCc1ccoc1)CCCc1ccoc1,0.45 µg/mL
4,CC(=O)O[C@H]1C[C@H]2[C@]3(C)CCCC(C)(C)[C@H]3CC[C@]2(C)[C@H]2CC=C3CO[C@H](O)[C@H]3[C@]12C,200 µg/mL
5,CC(=O)O[C@H]1C[C@@H]2[C@@]3(C)CCCC(C)(C)[C@@H]3CC[C@@]2(C)[C@@H]2CCc3cocc3[C@@]12C,180 µg/mL
6,CC(=O)O[C@@H]1OCC2=CC[C@H]3[C@]4(C)CC[C@H]5C(C)(C)CCC[C@]5(C)[C@H]4C[C@H](OC(C)=O)[C@]3(C)[C@H]21 [DEOXOSCALARIN ACETATE],190 µg/mL
7,C/C(=C\C(=O)C/C(C)=C/CCc1ccoc1)CCCc1ccoc1 [FUROSPONGIN 2],0.12 µg/mL
